Reference: patent US20070032477A1, “Pteridine derivatives useful for making pharmaceutical compositions” (priority 2003, published 2007)

Experiments:
[1] = test system: production of TNF-α by PBMC in response to stimulation by LPS; test: TNF-α assay; type: cell-based, human; details: LPS 1 μg/ml, 72 hours, sandwich ELISA
How it was run: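 Cells were LPS-stimulated (1 μg/ml final) peripheral blood mononuclear cells at 10^6/ml, exposed 72 h at 37 °C to 0.1, 1 or 10 μM test compound.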

[2] = Plasma levels after oral administration in healthy mice; type: in vivo, C57BL/6 mice; details: 20 mg/kg once a day
Method: Each group of 6 mice received the indicated dose at time point 0 and were bled at 1, 3 and 5 hours after compound administration. Quantification was performed using a calibration curve of known compound concentrations spiked in control serum.
The plasma levels of the tested compound (example 176) was evaluated in C57BL/6 mice 8-10 weeks old Harlan, weighing 18.6-22.0 g after oral administration of 20, 10, 5 and 1 mg/kg, respectively (n=6 per dose). The tested compound (example 176) was dissolved in water to the appropriate concentration in order to deliver a constant gavage volume of 10 μl/g of body weight. Blood was collected by eye bleeding with heparinized capillaries at 1, 3, and 5 hours after dosing from each animal. The plasma fraction was immediately separated by centrifugation for 2 minutes at 12,000 g and stored at −80° C. until analysis. Each plasma sample was spiked with internal standard followed by the addition of 4 volumes of methanol. The samples were kept for 30 minutes on ice prior to centrifugation (10 minutes at 12,000 g) in order to remove precipitated proteins. The supernatant was analyzed for the presence of the tested compound (example 176), using LC/MS/MS. As standard for the bio-analysis, the tested compound (example 176) was diluted stepwise; each dilution was added to control plasma; additionally spiked with internal standard, giving rise to standard curves from 200 to 40,000 nM.

[3] = test system: mixed lymphocyte reaction (PBMC with allogeneic PBMC or Eppstein-Barr Virus-transformed human B cells as stimulator cells); test: Mixed lymphocyte reaction (MLR) assay; type: cell-based; details: lowest concentration giving 50% suppression of the MLR; [3H]-thymidine
[4] = test system: CII induced rheumatoid arthritis in DBA mice; test: Collagen type II induced model of rheumatoid arthritis; details: mice in vivo; example 17 up to 40 mg/kg/day; methotrexate 10 mg/kg/day, 3 times a week
Excerpt: Collagen type II (hereinafter referred as CII) induced experimental model of rheumatoid arthritis (hereinafter referred as RA) in DBA mice is widely accepted as the most relevant and predictive preclinical model for RA. In this model, DBA mice are immunized with CII, the collagen type mainly present in the joint structures, together with complete Freund Adjuvant in their tail. 2 to 3 weeks later, several of the immunized mice start to develop arthritis in the four footpaths. In order to further worsen the disease, mice are given a second CII boost at three weeks after the first immunisation, this time however in a footpath. Because the immune system is already immunised in these mice, this rapidly provokes a severe swelling of the injected footpath (named Delayed Type Hypersensitivity or DTH) which can be used as a measurement for T-cell activation. Within a few days after the booster, almost all untreated animals start developing symptoms of arthritis. RA development is scored from 0 to 16 (16 being severe clinical arthritis in all four footpaths). At the end of the study (3 weeks after the CII boost) antibody formation was determined against CII and histology performed on the footpaths.
The efficiency of the pteridine derivative of example 17 (administered in an amount of 20 mg/kg/day, started one day before the CII boost) was explored in this CII-model.

| Compound | IC50 [1] | serum concentrations versus in vitro IC50 for IL-1β production or T cell activation [2] | IC50 [3] | mortality or cytotoxic effect on increasing the dose [4] |
| --- | --- | --- | --- | --- |
| CCCCCC(=O)N1CCN(c2nc(N)nc3ncc(-c4ccc(OC)c(OC)c4)nc23)CC1 [Example 10, 2-amino-4-[(N-hexanoyl)-piperazin-1-yl]-6-(3,4-dimethoxyphenyl)pteridine] | 0.07 µM | insufficient to inhibit IL-1β production or T cell activation | 0.1 µM | – |
| CN(Cc1cnc2nc(N)nc(N)c2n1)c1ccc(C(=O)N[C@@H](CCC(=O)O)C(=O)O)cc1 [methotrexate, reference compound] | – | – | – | death of all animals |
